# Measurements taken from PMC6968641, “N-monoarylacetothioureas as potent urease inhibitors: synthesis, SAR, and biological evaluation” (Journal of Enzyme Inhibition and Medicinal Chemistry, 2019).
# Like-named read-outs stand apart in the source and are kept apart here.
# What was measured:
# [1] = target: T1, H. pylori urease (Helicobacter pylori, UniProt P69996); assay: Urease inhibition, extracted H. pylori urease (indophenol method); assay type: biochemical; details: IC50 Extracted urease, extracted H. pylori urease
# T1 construct: endogenous in cells; host or cells: H. pylori ATCC 43504; sonicated, supernatant desalted on Sephadex G-25 (crude extract)
# T1 sequence (P14916 whole entry): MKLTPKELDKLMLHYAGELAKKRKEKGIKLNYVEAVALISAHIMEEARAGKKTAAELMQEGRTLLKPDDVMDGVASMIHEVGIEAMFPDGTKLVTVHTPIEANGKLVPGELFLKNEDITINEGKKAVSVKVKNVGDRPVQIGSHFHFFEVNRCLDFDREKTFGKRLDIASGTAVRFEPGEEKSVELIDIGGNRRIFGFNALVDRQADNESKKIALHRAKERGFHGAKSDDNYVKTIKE
# T1 sequence (P69996 whole entry): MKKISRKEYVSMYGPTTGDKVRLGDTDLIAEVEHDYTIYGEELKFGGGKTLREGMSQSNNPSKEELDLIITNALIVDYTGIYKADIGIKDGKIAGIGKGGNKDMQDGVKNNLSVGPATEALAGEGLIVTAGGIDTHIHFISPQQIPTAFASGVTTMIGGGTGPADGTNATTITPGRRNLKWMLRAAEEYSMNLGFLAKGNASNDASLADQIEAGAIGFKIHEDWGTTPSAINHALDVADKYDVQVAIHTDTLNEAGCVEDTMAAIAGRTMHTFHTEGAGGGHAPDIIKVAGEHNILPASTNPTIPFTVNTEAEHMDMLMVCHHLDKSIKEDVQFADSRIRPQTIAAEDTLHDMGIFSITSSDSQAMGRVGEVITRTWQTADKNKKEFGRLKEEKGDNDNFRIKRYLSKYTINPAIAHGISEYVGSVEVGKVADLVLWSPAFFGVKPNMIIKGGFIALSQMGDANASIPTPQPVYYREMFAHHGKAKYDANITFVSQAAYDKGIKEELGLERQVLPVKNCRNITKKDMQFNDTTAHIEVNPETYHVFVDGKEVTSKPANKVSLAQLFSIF
# Method: For urease inhibition assays, 50 mL broth cultures (2.0 × 10^8 CFU/mL) were centrifuged (5000×g, 4 °C) to collect the bacteria, and after washing twice with phosphate-buffered saline (pH 7.4), the H. pylori precipitation was stored at –80 °C for 8 h, and then was returned to room temperature, and after addition of 3 mL of distilled water and protease inhibitors, sonication was performed for 60 s. Following centrifugation (15,000×g, 4 °C), the supernatant was desalted through Sephadex G-25 column (PD-10 columns, Amersham Pharmacia Biotech, Uppsala, Sweden). The resultant crude urease solution was added to an equal volume of glycerol and stored at 4 °C until use in the experiment.
# Urease activity was determined in the 96-well assay plate by measuring ammonia production using the indophenol method as described by Weatherburn[20]. Briefly, to each well, 50 µL of urea (10 mM) in phosphate buffer solution was added in a mixture of 25 µL (10 U) of H. pylori urease and 25 µL of the test compound, which was incubated at 37 °C for 0.5 h. Fifty µL of phenol reagent (containing 127 mM phenol and 0.168 mM sodium nitroprusside) and 50 µL of alkali reagent (containing 125 mM NaOH and 0.168 mM NaOCl) were added in turn. The resulted mixture was incubated at 37 °C for another 0.5 h for colouration developing. The increasing absorbance was measured at 630 nm after 50 min using a microplate reader (Molecular Devices, San Jose, CA). Percentage inhibitions were calculated from the following formula (Equation (1)). Experiments were performed in triplicate and AHA was used as reference drug, and the IC50 value was determined as the concentration of compound that give 50% inhibition of maximal activity. As for the urease assay of intact cells, 25 µL (10 U) of H. pylori urease was replaced by 25 µL of cell suspension (4.0 × 10^7 CFU/mL).
# [2] = target: T2, Jack bean urease (Canavalia ensiformis, UniProt P07374); assay: Enzyme kinetic study (indophenol method); assay type: biochemical
# T2 construct: purchased
# T2 sequence (P07374 whole entry, looked up): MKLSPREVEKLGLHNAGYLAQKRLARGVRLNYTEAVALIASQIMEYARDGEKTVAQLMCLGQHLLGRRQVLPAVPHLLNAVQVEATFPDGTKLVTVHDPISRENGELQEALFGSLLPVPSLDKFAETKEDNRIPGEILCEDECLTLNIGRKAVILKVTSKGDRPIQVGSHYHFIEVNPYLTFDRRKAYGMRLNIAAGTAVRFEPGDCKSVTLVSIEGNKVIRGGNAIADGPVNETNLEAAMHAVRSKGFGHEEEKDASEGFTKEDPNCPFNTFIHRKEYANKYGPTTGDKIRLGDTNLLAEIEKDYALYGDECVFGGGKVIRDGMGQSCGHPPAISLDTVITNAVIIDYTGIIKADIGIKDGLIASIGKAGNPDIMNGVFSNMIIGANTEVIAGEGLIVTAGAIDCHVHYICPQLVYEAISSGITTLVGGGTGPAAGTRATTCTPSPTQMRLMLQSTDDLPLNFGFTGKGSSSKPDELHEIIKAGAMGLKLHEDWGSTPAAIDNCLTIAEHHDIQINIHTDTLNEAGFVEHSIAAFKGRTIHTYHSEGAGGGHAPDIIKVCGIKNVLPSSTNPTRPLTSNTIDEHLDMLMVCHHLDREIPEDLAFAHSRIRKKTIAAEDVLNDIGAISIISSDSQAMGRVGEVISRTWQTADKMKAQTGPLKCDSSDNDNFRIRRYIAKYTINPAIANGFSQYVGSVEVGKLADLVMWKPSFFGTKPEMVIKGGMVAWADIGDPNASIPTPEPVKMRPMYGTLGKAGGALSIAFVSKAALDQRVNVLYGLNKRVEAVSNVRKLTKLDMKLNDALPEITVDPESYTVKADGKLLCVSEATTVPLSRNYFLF
# Method: Based on the indophenol method, the velocity of ammonia production (V) was measured in the presence of concentration gradients of urea ([S]) for every specific concentration of selected compounds ([I]). Nonlinear fitting curves to data of V and [S] were used to determine the type of enzyme inhibition based on the general kinetics equation (Equation (1)). Subsequently, the resulted fitting constants ( Km/Vmax(1+[I]/Ki) or 1/Vmax(1+[I]/Ki′) ) and [I] were linearly fitted to give kinetic parameters Ki and Ki', respectively. The experimental assay was performed against a pure urease (Jack bean urease) for the consideration of precision. (1) V=Vmax[S]/Km(1+[I]/Ki)+(1+[I]/K^′i)[S]
# Mazzei et al. confirmed that urease shared the mechanism of catalysis and inhibition regardless of the biological sources[27]^,[28]. For excluding the possible interference, a pure urease (Jack bean urease) was therefore used for kinetic assays. As an example, Figure 2 describes the preincubation-time dependence of urease inhibition by b19. The suppressed urease activity maintained at relatively constant values with the increasing preincubation time under different concentrations of b19, resulting in nearly equal IC50 values.
# Similarly, kinetic parameters ( Ki and Ki' ) and inhibition types of other compounds were also determined and are shown in Table 3.
# [3] = Cytotoxicity MTT assay, P69; assay type: cell-based; details: human, P69 cells (normal prostate cell line), 25 μg/mL
# Method: (§1) The stock solutions of the selected compounds (250 µg/mL, in PBS) were prepared in medium. L-02 cells and P69 cells were grown in medium (90% RPMI-1640 medium, 10% foetal bovine serum, 1% penicillin/streptomycin) and maintained at 37 °C in a humidified atmosphere containing 5% CO2, respectively. Cells were seeded in 96-well cell culture plates. On the day when seeding, the cells were exposed to 250 µg/mL of compounds and further cultured for 72 h at 37 °C. Cell proliferation was then determined using the thiazolyl blue tetrazolium bromide (MTT) assay.
# [4] = test system: H. pylori; assay: Minimum inhibitory concentration, broth microdilution (CLSI); assay type: cell-based, Helicobacter pylori (ATCC 43504); details: Helicobacter pylori
# Method: H. pylori (ATCC 43504; […] The minimum inhibitory concentration (MIC) values were determined using the broth microdilution protocol according to the methods of the Clinical and Laboratory Standards Institute (CLSI)[21].
# [5] = Cytotoxicity MTT assay, L-02; assay type: cell-based; details: human, L-02 cells (normal hepatic cell line), 25 μg/mL
# Method: as §1
# [6] = target: T2, Jack bean urease; assay: Ligand affinity by surface plasmon resonance (SPR); assay type: binding
# Method: The binding kinetics of selected compounds were assayed via surface plasmon resonance (SPR) using an OPEN SPR instrument (Nicoya Lifesciences, Kitchener, Canada). First, urease dissolved (50 µg/mL) in PBS buffer (1 mM KH2PO4, 155 mM NaCl, 3 mM Na2HPO4-12H2O, pH 7.4), was immobilised to a CM5 chip using a standard amine coupling procedure. Then, SPR measurements were carried out in PBS, and stock solutions were diluted in the same buffer. Data were collected with OpenSPR control software. Experiments were performed by monitoring the refractive index changes as a function of time under constant flow rate of 20 µL/min. The relative amount of inhibitor bound to the urease was determined by measuring the net increase in refractive index over time compared to control running buffer. There is an inline subtraction of reference surface during the run. This change is usually reported in response units (RU). Sensograms were processed and analysed using TraceDrawer software. The binding curves were fit to determine the equilibrium dissociation constant (KD).
# In the present paper, the pure Jack bean urease from commercial was used for this assay because of non-availability of pure H. pylori urease. […] For efficient and tight ligand binding, the rate constant koff is of particular interest, because koff has a potential to differentiate indistinguishable compounds with similar affinities.
# [7] = target: T3, urease in intact H. pylori cell (Helicobacter pylori, UniProt P69996); assay: Urease inhibition in intact H. pylori cell (indophenol method); assay type: cell-based
# T3 construct: H. pylori urease was replaced by 25 µL of cell suspension (4.0 × 10^7 CFU/mL); endogenous in cells; host or cells: intact H. pylori ATCC 43504 cells
# T3 sequence (P69996 whole entry): as the sequence (P69996 whole entry) above
# T3 sequence (P14916 whole entry, further chain): as the sequence (P14916 whole entry) above
smiles,measurement,setting,value
NC(=S)NC(=O)Cc1ccc(F)cc1 [b23],IC50,[1],14.6 ± 1 µM
same,Ki,[2],3.53 µM
same,Type of inhibition,[2]; Jack bean urease,Reversible
same,Ki',[2]; dissociation constant of urease-urea-inhibitor complex,9.67 µM
same,"viability at 72 h, 25 µg/mL",[3],97.6%
same,MIC,"[4]; pH=4.0, read-out: MIC pH=4.0",8 µM
same,MIC,"[4]; pH=7.0, read-out: MIC pH=7.0",> 64 µM
same,"viability at 72 h, 25 µg/mL",[5],96.1%
same,melting point,,165.4 to 166.5 °C
same,Kd,[6],0.569 ± 0.0216 µM
same,kon,[6]; pH 7.4,54300 M⁻¹ s⁻¹
same,koff,"[6]; pH 7.4, SPR, immobilised urease, PBS pH 7.4",0.0309 s⁻¹
same,IC50,[7],93.6 ± 5.5 µM
